According to patent US20250049970A1, “DLL3 TARGETING PEPTIDES AND CONSTRUCTS THEREOF” (MARIANA ONCOLOGY INC., priority 2023, published 2025):
*1 amine or outer side, *2 acyl side, *3 side chain or, on linkers, in order; H or OH if unused. Where a SMILES comes first, the peptide text is derived from it. Bridges are numbered along the chain shown (N, C = ends). [ ]: non-standard residue; d: D form. The star is where a group is joined. ξ: configuration not given here. Ala(piperidin-4-yl) = O=C([C@H](CC1CCN([*:3])CC1)N[*:1])[*:2]; DOTA = O=C(O)CN1CCN(CC(=O)O)CCN(CC(=O)*)CCN(CC(=O)O)CC1; Phe(4-CF3) = N[C@@H](Cc1ccc(C(F)(F)F)cc1)C(=O)O; Ala(morpholin-4-yl) = N[C@@H](CN1CCOCC1)C(=O)O; Bip = N[C@@H](Cc1ccc(-c2ccccc2)cc1)C(=O)O; 2Nal = N[C@@H](Cc1ccc2ccccc2c1)C(=O)O; Gly(4-THP) = N[C@H](C(=O)O)C1CCOCC1; X4 = O=C(C(CC1CCNCC1)N[*:1])[*:2]; AllylGly = C=CC[C@H](N)C(=O)O; Chg = N[C@H](C(=O)O)C1CCCCC1; ξIle = CC[C@H](C)C(N)C(=O)O; ξC = NC(CS)C(=O)O

biological target: T1, DLL3 (Homo sapiens, UniProt Q9NYJ7); assay: SPR KD, biotinylated human DLL3 on streptavidin chip (Table 8); design: biotin (biotinylated); conditions: SPR KD, biotinylated human DLL3 on streptavidin sensor chip, 25° C., 1:1 binding model
T1 sequence (Q9NYJ7 27-618): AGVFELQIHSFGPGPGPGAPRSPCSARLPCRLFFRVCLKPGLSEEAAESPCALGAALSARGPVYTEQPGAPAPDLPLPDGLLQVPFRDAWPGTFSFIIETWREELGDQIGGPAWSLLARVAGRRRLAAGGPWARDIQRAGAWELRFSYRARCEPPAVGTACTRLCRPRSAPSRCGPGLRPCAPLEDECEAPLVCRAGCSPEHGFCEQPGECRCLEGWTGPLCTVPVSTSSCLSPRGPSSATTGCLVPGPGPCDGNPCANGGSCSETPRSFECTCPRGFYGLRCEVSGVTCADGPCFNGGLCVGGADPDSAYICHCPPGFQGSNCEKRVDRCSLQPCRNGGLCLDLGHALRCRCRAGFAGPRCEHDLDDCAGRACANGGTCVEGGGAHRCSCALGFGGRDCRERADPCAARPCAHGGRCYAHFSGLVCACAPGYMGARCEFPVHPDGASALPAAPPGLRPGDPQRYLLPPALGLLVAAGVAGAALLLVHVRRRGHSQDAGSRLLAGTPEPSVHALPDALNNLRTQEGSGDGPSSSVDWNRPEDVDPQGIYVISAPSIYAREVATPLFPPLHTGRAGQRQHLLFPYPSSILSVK
Description: Biotinylated target ligand human DLL3 was immobilized on a streptavidin sensor chip. A reference surface was set up for nonspecific binding and refractive index changes. […] Sensorgram curves were fitted with 1:1 binding model, and affinity and kinetic parameters were obtained using Biacore Insight evaluation 4.0. software.

Q: How did the Kd turn out when `CC[C@H](C)[C@H](NC(=O)[C@@H](NC(=O)[C@H](Cc1c[nH]c2ccccc12)NC(C)=O)[C@@H](C)O)C(=O)N[C@H]1CSSC[C@@H](C(=O)N[C@@H](Cc2c[nH]c3ccccc23)C(=O)N2CCC[C@H]2C(=O)N[C@H](CCCCNC(=O)CN2CCN(CC(=O)O)CCN(CC(=O)O)CCN(CC(=O)O)CC2)C(N)=O)NC(=O)[C@H](CC(=O)O)NC(=O)[C@H](CCCCNC(=O)CN2CCN(CC(=O)O)CCN(CC(=O)O)CCN(CC(=O)O)CC2)NC(=O)[C@H](Cc2ccc3ccccc3c2)NC(=O)[C@H](CC(N)=O)NC(=O)[C@H](CC(N)=O)NC1=O` [compound 253, Ac-W-T-I-C(3)-N-N-(2Nal)-Lys(DOTA)-D-C(3)-W-P-[D-Lys(DOTA)]-NH2] (Ac-WTICNN[2Nal]K(DOTA)DCWP[dK](DOTA)-NH2; disulfide 4-10) was run?
A: The Kd was less than 1 nM.

Q: With `CC(=O)N[C@@H](Cc1c[nH]c2ccccc12)C(=O)N[C@H](C(=O)N[C@H](C(=O)N[C@H]1CSSC[C@@H](C(=O)N[C@@H](Cc2c[nH]c3ccccc23)C(=O)N2CCC[C@H]2C(N)=O)NC(=O)[C@H](CC(=O)O)NC(=O)[C@H](CCCCNC(=O)CN2CCN(CC(=O)O)CCN(CC(=O)O)CCN(CC(=O)O)CC2)NC(=O)[C@H](Cc2ccc3ccccc3c2)NC(=O)[C@H](CC(N)=O)NC(=O)[C@H](CN2CCOCC2)NC1=O)C1CCCCC1)[C@@H](C)O` [compound 325, Ac-W-T-(Chg)-C(3)-[3-(1-morpholinyl)-Ala]-N-(2Nal)-Lys(DOTA)-D-C(3)-W-P-CONH2] (Ac-WT[Chg]C[Ala(morpholin-4-yl)]N[2Nal]K(DOTA)DCWP-NH2; disulfide 4-10) as the compound, how does the Kd read?
A: Its Kd is less than 1 nM.

same assay, conditions: biotinylated human DLL3 on streptavidin sensor chip, 25° C., 1:1 binding model; read-out: SPR KD

Q: For `CC[C@H](C)[C@H](NC(=O)[C@@H](NC(=O)[C@H](Cc1ccc(C(F)(F)F)cc1)NC(C)=O)[C@@H](C)O)C(=O)N[C@H]1CSSC[C@@H](C(=O)N[C@@H](Cc2c[nH]c3ccccc23)C(=O)N2CCC[C@H]2C(N)=O)NC(=O)[C@H](CC(=O)O)NC(=O)[C@H](Cc2cnc[nH]2)NC(=O)[C@H](Cc2c[nH]c3ccccc23)NC(=O)[C@H](CC(N)=O)NC(=O)[C@H](CC(N)=O)NC1=O` [compound 215, Ac-(4CF3-F)-T-I-C(3)-N-N-W-H-D-C(3)-W-P-CONH2] (Ac-[Phe(4-CF3)]TICNNWHDCWP-NH2; disulfide 4-10), which Kd is on record?
A: Its Kd is 10 to 100 nM.

Q: Which Kd does the source give for `CC[C@H](C)[C@H](NC(=O)[C@@H](NC(=O)[C@H](Cc1c[nH]c2ccccc12)NC(C)=O)[C@@H](C)O)C(=O)N[C@H]1CSSC[C@@H](C(=O)N[C@@H](Cc2c[nH]c3ccccc23)C(=O)N2CCC[C@H]2C(=O)N[C@H](CCCCNC(=O)CN2CCN(CC(=O)O)CCN(CC(=O)O)CCN(CC(=O)O)CC2)C(N)=O)NC(=O)[C@H](CC(=O)O)NC(=O)[C@H](Cc2cnc[nH]2)NC(=O)[C@H](Cc2ccc3ccccc3c2)NC(=O)[C@H](CC(N)=O)NC(=O)[C@H](CCCCNC(=O)CN2CCN(CC(=O)O)CCN(CC(=O)O)CCN(CC(=O)O)CC2)NC1=O` [compound 247] (Ac-WTICK(DOTA)N[2Nal]HDCWP[dK](DOTA)-NH2; disulfide 4-10) here?
A: The Kd was less than 1 nM.

Q: `CC[C@H](C)C(NC(=O)[C@@H](NC(=O)[C@H](Cc1c[nH]c2ccccc12)NC(C)=O)[C@@H](C)O)C(=O)N[C@H]1CSSC[C@@H](C(=O)N[C@@H](Cc2c[nH]c3ccccc23)C(=O)N2CCC[C@H]2C(=O)N[C@H](CCCCNC(=O)CN2CCN(CC(=O)O)CCN(CC(=O)O)CCN(CC(=O)O)CC2)C(N)=O)NC(=O)[C@H](CC(=O)O)NC(=O)[C@H](Cc2cnc[nH]2)NC(=O)[C@H](Cc2ccc3ccccc3c2)NC(=O)[C@H](CCCCNC(=O)CN2CCN(CC(=O)O)CCN(CC(=O)O)CCN(CC(=O)O)CC2)NC(=O)[C@H](CC(N)=O)NC1=O` (stereo partly drawn) [compound 248, Ac-W-T-I-C(3)-N-Lys(DOTA)-(2Nal)-H-D-C(3)-W-P-[D-Lys(DOTA)]-NH2] (Ac-WT[ξIle]CNK(DOTA)[2Nal]HDCWP[dK](DOTA)-NH2; disulfide 4-10) was tested. Which Kd did it give?
A: Its Kd is less than 1 nM.

Q: `CC[C@H](C)[C@H](NC(=O)[C@@H](NC(=O)[C@H](Cc1c[nH]c2ccccc12)NC(C)=O)[C@@H](C)O)C(=O)N[C@H]1CSSC[C@@H](C(=O)N[C@@H](Cc2c[nH]c3ccccc23)C(=O)N2CCC[C@H]2C(N)=O)NC(=O)[C@H](CC(=O)O)NC(=O)[C@H](Cc2c[nH]cn2)NC(=O)[C@H](Cc2ccc3ccccc3c2)NC(=O)[C@H](CCCCNC(=O)CN2CCN(CC(=O)O)CCN(CC(=O)O)CCN(CC(=O)O)CC2)NC(=O)[C@H](CC(N)=O)NC1=O` [compound 250, Ac-W-T-I-C(3)-N-Lys(DOTA)-(2Nal)-H-D-C(3)-W-P-CONH2] (Ac-WTICNK(DOTA)[2Nal]HDCWP-NH2; disulfide 4-10) was tested. Which Kd did it give?
A: The Kd was 1 to 10 nM.

Q: How did the Kd turn out when `CC[C@H](C)[C@H](NC(=O)[C@@H](NC(=O)[C@H](Cc1c[nH]c2ccccc12)NC(C)=O)[C@@H](C)O)C(=O)N[C@H]1CSSC[C@@H](C(=O)N[C@@H](Cc2c[nH]c3ccccc23)C(=O)N2CCC[C@H]2C(N)=O)NC(=O)[C@H](CC(=O)O)NC(=O)[C@H](CCCCNC(=O)CN2CCN(CC(=O)O)CCN(CC(=O)O)CCN(CC(=O)O)CC2)NC(=O)[C@H](Cc2ccc3ccccc3c2)NC(=O)[C@H](CC(N)=O)NC(=O)[C@H](CC(N)=O)NC1=O` [compound 254] (Ac-WTICNN[2Nal]K(DOTA)DCWP-NH2; disulfide 4-10) was run?
A: Its Kd is less than 1 nM.

Q: `CC(=O)N[C@@H](Cc1c[nH]c2ccccc12)C(=O)N[C@H](C(=O)N[C@H](C(=O)N[C@H]1CSSC[C@@H](C(=O)N[C@@H](Cc2c[nH]c3ccccc23)C(=O)N2CCC[C@H]2C(N)=O)NC(=O)[C@H](CC(=O)O)NC(=O)[C@H](CCCCNC(=O)CN2CCN(CC(=O)O)CCN(CC(=O)O)CCN(CC(=O)O)CC2)NC(=O)[C@H](Cc2ccc3ccccc3c2)NC(=O)[C@H](CC(N)=O)NC(=O)C(CN2CCOCC2)NC1=O)C(C)(C)C)[C@@H](C)O` (stereo partly drawn) [compound 309, Ac-W-T-(Tbg)-C(3)-[3-(1-morpholinyl)-Ala]-N-(2Nal)-Lys(DOTA)-D-C(3)-W-P-CONH2] was tested. Which Kd did it give?
A: Its Kd is less than 1 nM.

Q: `CC(=O)N[C@@H](Cc1c[nH]c2ccccc12)C(=O)N[C@H](C(=O)N[C@H](C(=O)N[C@H]1CSSC[C@@H](C(=O)N[C@@H](Cc2c[nH]c3ccccc23)C(=O)N2CCC[C@H]2C(N)=O)NC(=O)[C@H](CC(=O)O)NC(=O)[C@H](CCCCNC(=O)CN2CCN(CC(=O)O)CCN(CC(=O)O)CCN(CC(=O)O)CC2)NC(=O)[C@H](Cc2ccc3ccccc3c2)NC(=O)[C@H](CC(N)=O)NC(=O)C(CC2CCNCC2)NC1=O)C1CCOCC1)[C@@H](C)O` (stereo partly drawn) [compound 319, Ac-W-T-(THPG)-C(3)-[3-(4-piperidinyl)-Ala]-N-(2Nal)-Lys(DOTA)-D-C(3)-W-P-CONH2] (Ac-WT[Gly(4-THP)]C[X4]N[2Nal]K(DOTA)DCWP-NH2; disulfide 4-10) was tested. Which Kd did it give?
A: The Kd was less than 1 nM.

Q: Which Kd does the source give for `CC(=O)N[C@@H](Cc1c[nH]c2ccccc12)C(=O)N[C@H](C(=O)N[C@H](C(=O)N[C@H]1CSSC[C@@H](C(=O)N[C@@H](Cc2c[nH]c3ccccc23)C(=O)N2CCC[C@H]2C(N)=O)NC(=O)[C@H](C)NC(=O)[C@@H](CCCCNC(=O)CN2CCN(CC(=O)O)CCN(CC(=O)O)CCN(CC(=O)O)CC2)NC(=O)[C@H](Cc2ccc3ccccc3c2)NC(=O)[C@H](CC(N)=O)NC(=O)[C@H](CC2CCNCC2)NC1=O)C1CCOCC1)[C@@H](C)O` [compound 327, Ac-W-T-(THPG)-C(3)-[3-(4-piperidinyl)-Ala]-N-(2Nal)-Lys(DOTA)-(Ala)-C(3)-W-P-CONH2] (Ac-WT[Gly(4-THP)]C[Ala(piperidin-4-yl)]N[2Nal][dK](DOTA)ACWP-NH2; disulfide 4-10) here?
A: The Kd was less than 1 nM.

Q: Which Kd does the source give for `CC(=O)N[C@@H](Cc1c[nH]c2ccccc12)C(=O)N[C@H](C(=O)N[C@H](C(=O)N[C@H]1CSSCC(C(=O)N[C@@H](Cc2c[nH]c3ccccc23)C(=O)N2CCC[C@H]2C(N)=O)NC(=O)[C@H]([C@@H](C)O)NC(=O)[C@@H](CCCCNC(=O)CN2CCN(CC(=O)O)CCN(CC(=O)O)CCN(CC(=O)O)CC2)NC(=O)[C@H](Cc2ccc3ccccc3c2)NC(=O)[C@H](CC(N)=O)NC(=O)[C@H](CC2CCNCC2)NC1=O)C1CCOCC1)[C@@H](C)O` (stereo partly shown) [compound 328, Ac-W-T-(THPG)-C(3)-[3-(4-piperidinyl)-Ala]-N-(2Nal)-Lys(DOTA)-(Thr)-C(3)-W-P-CONH2] (Ac-WT[Gly(4-THP)]C[Ala(piperidin-4-yl)]N[2Nal][dK](DOTA)T[ξC]WP-NH2; disulfide 4-10) here?
A: Its Kd is less than 1 nM.

Q: With `CC[C@H](C)[C@H](NC(=O)[C@@H](NC(=O)[C@H](Cc1c[nH]c2ccccc12)NC(C)=O)[C@@H](C)O)C(=O)N[C@H]1CC=CC[C@@H](C(=O)N[C@@H](Cc2c[nH]c3ccccc23)C(=O)N2CCC[C@H]2C(N)=O)NC(=O)[C@H](CC(=O)O)NC(=O)[C@H](Cc2cnc[nH]2)NC(=O)[C@H](Cc2c[nH]c3ccccc23)NC(=O)[C@H](CC(N)=O)NC(=O)[C@H](CC(N)=O)NC1=O` [compound 331] (Ac-WTI[AllylGly]NNWHD[AllylGly]WP-NH2; staple 4-10) as the compound, how does the Kd read?
A: The Kd was 100 to 300 nM.

Q: `CC[C@H](C)[C@H](NC(=O)[C@@H](NC(=O)[C@H](Cc1ccc(-c2ccccc2)cc1)NC(C)=O)[C@@H](C)O)C(=O)N[C@H]1CSSC[C@@H](C(=O)N[C@@H](Cc2c[nH]c3ccccc23)C(=O)N2CCC[C@H]2C(=O)O)NC(=O)[C@H](CC(=O)O)NC(=O)[C@H](Cc2c[nH]cn2)NC(=O)[C@H](Cc2c[nH]c3ccccc23)NC(=O)[C@H](CC(N)=O)NC(=O)[C@H](CC(N)=O)NC1=O` [compound 333, Ac-(BIP)-T-I-C(3)-N-N-W-H-D-C(3)-W-P-CONH2] (Ac-[Bip]TICNNWHDCWP-OH; disulfide 4-10) was tested. Which Kd did it give?
A: The Kd was 100 to 300 nM.
